Measured values taken from US20060276394A1, “METHODS AND COMPOSITIONS FOR TREATING NEUROLOGICAL DISORDERS” (WYETH, priority 2002, published 2006).
“Also recorded” adds a separate entry of the source.

How the values were obtained:
IGFBP-2 mRNA = assay: transcriptional profiling of amygdala of drug-treated rats; assay type: in vivo; conditions: rat amygdala
From the text: In the short-term 3 day treatment, it is possible that the drugs might exert their antidepressant effects through decreasing IGFBP-2 expression, which would increase bioavailability of IGF-I. The long-term treatment is of equivalent magnitude but in the opposite direction. This may represent a compensatory mechanism in response to the short-term drug effects.

IGFBP-1 to IGFBP-6 = conditions: cited from earlier work
Swiss-Webster mice [1] = assay: mouse four-plate test (FPT), punished crossings; assay type: in vivo
Procedure: (§1) To assess the anxiolytic activity of NBI-31772, mice receiving intraventricular administration of NBI-31772 were tested in an elevated zero maze (EZM) or in a four-plate appratus (FPT). NBI-31722 (availabe from Calbiochem/EMD Biosciences, Inc. of San Diego, Calif.) was administered in a volume of 2 μl. Balb/C mice were used for the elevated zero maze and Swiss-Webster mice were used for the four-plate test. One-way analysis of variance (ANOVA) was performed on behavioral data to determine effects of test compound treatments, followed by Least Significant Difference Tests for a post hoc analysis. Data is presented as the mean±SEM.
The four-plate apparatus consists of a Plexiglas chamber (18×25×16 cm) with a floor consisting of four rectangular metal plates (8×11 cm), which are separated from one another by a 4 mm gap. All four plates are wired to a shock generator (0.8 mA, 0.5 second; Med Associates Inc. of St. Albans, Vt.). In each experiment, mice are placed into the chamber and given an 18-second habituation period followed by a 1-minute test. During the test, the animal's innate motivation to explore the novel environment is suppressed by the delivery of a mild foot shock every time the animal moves from one plate to another (referred to as a ‘punished crossing’). Following each punished crossing, there is a 3-second time out where the mouse may cross the plates without receiving another shock. An experimenter blind to the dosing conditions administers shocks, and a computer records the total number of punished crossings an animal makes during the testing period. Clinically effective classes of anxiolytic compounds such as benzodiazepines, selective serotonin reuptake inhibitors, or 5-HT1A […] produce increases in punished crossings, which is indicative of anxiolytic-like activity.
In each study, mice were given a single icv injection or two icv injections of test compounds or vehicle 20 minutes prior to the test session, and the number of punished crosses during the 1-minute test was recorded. For experiments where 2 icv injections were given, an animal received an injection in both the left and right ventricles, with the second injection given immediately after the first injection. A 26-gauge Hamilton syringe with 3-mm needle was used for injections and the injection site was visualized by locating the middle of the invisible line that runs diagonally from the left eye to the right ear. Mice were housed individually during the interval between injections and behavioral testing.
The mouse four-plate test was performed and statistical analyses conducted as described in Example 9.
In these studies, NBI-31772 and JB1, an IGF-1R antagonist, were administered centrally (icv) with the two injections occurring sequentially. Compounds were administered 20 minutes prior to testing and the number of punished crosses during the 1-minute test was recorded.

Swiss-Webster mice [2] = assay: mouse tail suspension test (TST); assay type: in vivo; conditions: for immobility: 20 minutes prior to testing
Procedure: To assess the on potential antidepressant effects of NBI-31772, Swiss-Webster mice were analyzed using the Tail Suspension Test (TST). In this test, mice were suspended upside down by taping their tails with adhesive laboratory tape (VWR International of West Chester, Pa.) to a flat metal bar connected to a strain gauge within a sound-attenuating chamber (Med Associates Inc. of St. Albans, Vt.). The bar is positioned such that a mouse is not able to grasp the top or the sides of the chamber. The total time spent immobile during a 6-minute test session is automatically recorded. Compounds that decrease the total immobility time compared to control animals are predicted to have antidepressant-like effects. In each study, mice were given a single icv injection of test compound or vehicle 20 minute prior to the test session. Mice were housed individually during the interval between injection and behavioral testing.
One-way analysis of variance (ANOVA) was performed on behavioral data to determine effects of NBI-31772 treatment, followed by Least Significant Difference Tests for a post hoc analysis. The data is presented as the mean±SEM. […] This decrease in immobility indicates antidepressant-like effects similar to that seen with IGF-1.
The mouse tail suspension test was performed and statistical analyses conducted as described in Example 11.

fibroblast = conditions: IGF-I released from binding protein complex; cited from earlier work
Balb/C mice = assay: mouse elevated zero maze (EZM); assay type: in vivo
Procedure: as §1
These effects are similar to those seen with reference anxiolytic compounds chlordiazepoxide and diazepam (Ring et al., Psychopharmacology (Berl.), 2006, 185(2):218-225) and are indicative of anxiolytic-like activity of NBI-31772 in the EZM.

IGFBP-2 = biological target: T1, IGFBP-2 (Homo sapiens, UniProt P18065); conditions: cited from earlier work
T1 sequence (P18065 with tags, fused parts or gaps DUP19-21/R317C): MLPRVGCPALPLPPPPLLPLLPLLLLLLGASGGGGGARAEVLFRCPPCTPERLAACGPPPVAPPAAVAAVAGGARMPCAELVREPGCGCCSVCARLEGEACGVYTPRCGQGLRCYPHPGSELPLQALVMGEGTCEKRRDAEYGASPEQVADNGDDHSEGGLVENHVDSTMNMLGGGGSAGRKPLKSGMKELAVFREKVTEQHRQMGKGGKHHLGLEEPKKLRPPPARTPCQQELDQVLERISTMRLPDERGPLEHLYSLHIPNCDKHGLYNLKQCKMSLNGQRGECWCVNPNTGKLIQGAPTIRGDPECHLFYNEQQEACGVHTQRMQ

IGF-I mRNA = assay: microarray profiling of antidepressant-treated C6 glioma cell lines; assay type: cell-based; conditions: quiescent C6 glioma cell lines, 24 hours
From the text: Glial cell cultures were used because they lack endogenous serotonin and norepinephrine transporter mechanisms. Thus, any transcriptional effects caused by the antidepressant drugs are due to actions beyond the level of the serotonin and norepinephrine receptors and respective transporters. […] Antidepressant drugs may therefore be acting on the glia, which produces the neurotrophic factor IGF-I, which acts in a juxtacrine manner to stimulate neurogenesis.

adult rat dentate gyrus = assay: BrdU-positive cell proliferation in adult rat dentate gyrus after chronic icv infusion; assay type: in vivo; conditions: 10 days icv via minipump, sacrifice Day 11
Procedure: Previous investigators have shown that IGF-1 administered either intracerebroventricular (icv) or systemically increases proliferation and survival, and (Aberg, et al, 2000; Lichtenwalner et al, 2000). Furthermore, systemic IGF promotes neuronal differentiation. The present study confirms and extends these previous findings. Rats were given IGF-1 for 10 days via a cannula attached to a semiosmotic minipump. On Day 11, animals were sacrificed and quantitative analysis was performed to determine the number of BrdU-positive cells as a measure of cell proliferation. A 66% increase in BrdU-positive cells per hippocampus compared to saline-infused animals was observed (FIG. 10).

[3] = cited from earlier work
[4] = rats, subcutaneous deposition; cited from earlier work

Compound: O=C1CC2(CCCC2)CC(=O)N1CCCCN1CCN(c2ncccn2)CC1 [Buspirone]
- expression of IGFBP-2 mRNA compared to vehicle alone (IGFBP-2 mRNA; 3 day treatment): decreased expression
- expression of IGFBP-2 mRNA compared to vehicle alone (IGFBP-2 mRNA; 14 day treatment): increased expression

Compound: C[C@]12CC[C@H]3[C@@H](CC[C@@H]4C[C@@](O)(C(F)(F)F)CC[C@@H]43)[C@@H]1CC[C@@H]2C(=O)CO [GMA-839]
- expression of IGFBP-2 mRNA compared to vehicle alone (IGFBP-2 mRNA; 3 day treatment): decreased expression
- expression of IGFBP-2 mRNA compared to vehicle alone (IGFBP-2 mRNA; 14 day treatment): increased expression

Compound: O=C(O)c1cc2cc(O)c(O)cc2c(C(=O)c2ccc(O)c(O)c2)n1 [NBI-31772]
- dissociation of IGF-I from its binding protein complex (IGFBP-1 to IGFBP-6): dissociates
- inhibition of 125I IGF-I binding / interaction of IGF-I with IGFBP-1 to 6 (IGFBP-1 to IGFBP-6): inhibits; also recorded: dose-dependent inhibition
- increase in punished crossings (Swiss-Webster mice [1]; 10 μg icv): 22%
- increase in punished crossings (Swiss-Webster mice [1]; 30 μg icv): 32%
- increase in punished crossings compared to vehicle group (Swiss-Webster mice [1]; 30 μg icv, two sequential icv injections study): 24%
- seizures, percentage of animals (Swiss-Webster mice [1]; 56 μg icv): 20%
- seizures, percentage of animals (Swiss-Webster mice [1]; 100 μg icv): 40%
- punished crossings (Swiss-Webster mice [1]; 3.0-30 μg, icv): dose-dependent increase
- punished crossings (Swiss-Webster mice [1]; higher doses 56 and 100 μg icv, not used for analysis): an increase in punished crossings was seen
- decrease in immobility (Swiss-Webster mice [2]; 3 μg icv): 32%
- decrease in immobility (Swiss-Webster mice [2]; 10 μg icv): 35%
- decrease in immobility (Swiss-Webster mice [2]; 30 μg icv): 38%
- immobility (Swiss-Webster mice [2]; 0.3-30 μg icv): dose-dependent decrease
- biological activity of the released IGF-I (fibroblast): biologically active
- increase in % time in the open arms compared to the vehicle group (Balb/C mice; 0.3 μg icv): 100%
- increase in % time in the open arms compared to the vehicle group (Balb/C mice; 1 μg icv): 100%
- increase in % time in the open arms compared to the vehicle group (Balb/C mice; 3 μg icv): 81%
- increase in % time in the open arms compared to the vehicle group (Balb/C mice; 10 μg icv): 119%
- % time spent in the open arms of the maze (Balb/C mice; 0.1-10 μg, icv, 20 minutes prior to testing): dose-dependent increase
- activity toward IGFBP-2 compared to the other five IGFBPs (IGFBP-2): highest activity

Compound: Fc1ccc([C@@H]2CCNC[C@H]2COc2ccc3c(c2)OCO3)cc1 [Paroxetine]
- expression of IGFBP-2 mRNA compared to vehicle alone (IGFBP-2 mRNA; 3 day treatment): decreased expression
- expression of IGFBP-2 mRNA compared to vehicle alone (IGFBP-2 mRNA; 14 day treatment): increased expression

Compound: CNCCCN1c2ccccc2CCc2ccccc21 [desipramine]
- expression of IGF-I mRNA (IGF-I mRNA): increased expression

Compound: CNCCC(Oc1ccc(C(F)(F)F)cc1)c1ccccc1 (stereo not shown) [fluoxetine]
- expression of IGF-I mRNA (IGF-I mRNA): increased expression

Compound: COc1ccc(C(CN(C)C)C2(O)CCCCC2)cc1 (stereo not shown) [venlafaxine]
- expression of IGF-I mRNA (IGF-I mRNA): increased expression

Compound: IGF-1: recombinant human IGF-1, insulin-like growth factor, available from Bachem Biosciences
- increase in BrdU-positive cells per hippocampus compared to saline-infused animals (adult rat dentate gyrus): 66%
- serum half-life [3]: 10 min
- inhibition of 125I IGF-I binding / interaction of IGF-I with IGFBP-1 to 6 (IGFBP-1 to IGFBP-6): dose-dependent inhibition
- increase in punished crossings from vehicle (Swiss-Webster mice [1]; 0.01 μg dose, central administration): 32%
- effects in the four-plate test (FIG. 13) (Swiss-Webster mice [1]; 0.1 μg): anxiolytic-like effects
- punished crossings (Swiss-Webster mice [1]; 0.03-1.0 μg, central administration 20 minutes prior to testing): significant overall effect
- decrease in immobility from vehicle (Swiss-Webster mice [2]; 10 μg dose): 33%
- immobility (Swiss-Webster mice [2]; 1-10 μg): dose-dependent decrease
- concentrations in the CNS relative to those in the serum [4]: about 0.5%
- plasma concentrations at which uptake into CSF reached a plateau [4]: above 150 ng/ml

Compound: complex of IGF-I and IGFBP-3: dimeric complex of IGF-I and IGFBP-3 in serum
- serum half-life [3]: 30 min
